According to patent US4039663A, “Daunomycins, process for their uses and intermediates” (Societa' Farmaceutici Italia S.p.A., priority 1975, dated 1977):
In brackets after ≈: the same amount, converted by molar mass. Like-named read-outs stand apart in the source and are kept apart here.

Columns and labels:
[1] = system: single myocardial cells isolated from the hearts of newborn mice
Method: The cardiotoxic activity of compound (VI) was evaluated in vitro on single myocardial cells isolated by trypsinization from the hearts of newborn mice (Necco A., Dasdia T. IRCS, 2: 1293, 1974). After 3-4 days, the cell cultures, showing clusters of beating cells, are studied both as to frequency and rhythym.

[2] = system: mouse embryo fibroblast cultures infected with MSV; experiment: Cell proliferation in cultured mice fibroblasts infected with Moloney Sarcoma Virus; assay type: cell-based; settings: Mus musculus, Fibroblast, 72 h, 3 days treatment, read-out: Cell Proliferation (% of controls); for activity at 0.0062 µg/mL: 0.0062 μg/ml; for activity at 0.025 µg/mL: 0.025 μg/ml; for activity at 0.1 µg/mL: 0.1 μg/ml; for activity at 0.4 µg/mL: 0.4 μg/ml
Method: (§1) The test compounds were evaluated on mouse embryo fibroblast cultures infected with MSV. After a treatment of three days, the inhibiting doses (ID50) were evaluated on cell proliferation and on MSV foci formation.
(§2) Effect of compounds (VI and (VII) on foci formation and on cell proliferation in cultured mice fibroblasts infected with Moloney Sarcoma Virus. (3 days treatment)

[3] = as above; assay type: cell-based, mouse; settings: mouse, embryo fibroblasts; 3 days treatment; read-out: Cell Proliferation ID50 (B)
Method: as §1, §2

[4] = system: HeLa cells; experiment: Proliferative activity (colony counts) of cultured HeLa cells at different exposure times; assay type: cell-based; settings: Homo sapiens; for activity at 0.025 µg/mL: 0.025 μg/ml; for activity at 0.05 µg/mL: 0.05 μg/ml; for activity at 0.1 µg/mL: 0.1 μg/ml; for IC50: read-out: ID50 (50% inhibition of colonies); for activity at 0.25 µg/mL: 0.25 μg/ml; for activity at 0.5 µg/mL: 0.5 μg/ml; for activity at 1 µg/mL: 1 μg/ml
Description: (§3) Tests in vitro on the effect of compounds (VI) and (VII) on the micotic index and the proliferative activity of cultured HeLa cells at different exposure times. The results in Table 4 are expressed as a percent of the untreated controls. The ID50 represents the dose which gives a 50% inhibition of colonies.

[5] = system: cultured cells; experiment: Inhibition of cell mitosis and proliferation in cultured cells (summary); assay type: cell-based; settings: cultured cells in vitro
Method: (§4) The antitumor activity of the novel antibiotic compounds of the invention, i.e., 4'-epi-daunomycin (VI) and 4'-epidaunomycin, β-anomer, (VII) was evaluated on several transplanted tumors in mice, and in in vitro tests, in comparison with the known antitumor agent daunomycin (IV).

[6] = system: HeLa cells; experiment: Micotic index of cultured HeLa cells at different exposure times; assay type: cell-based; settings: Homo sapiens; for activity at 0.025 µg/mL: 0.025 μg/ml; for activity at 0.05 µg/mL: 0.05 μg/ml; for activity at 0.1 µg/mL: 0.1 μg/ml; for activity at 0.25 µg/mL: 0.25 μg/ml; for activity at 0.5 µg/mL: 0.5 μg/ml; for activity at 1 µg/mL: 1 μg/ml
Description: as §3

[7] = system: TR[…] LEUKEMIA; experiment: Transplanted Gross leukemia in mice; assay type: in vivo, Inbred C3 H female mice; settings: first to fifth day, control = 100
Description: Inbred C3 H female mice were intravenously inoculated with a suspension of leukemia lymphonodes and spleen cells (2.5 × 10^6 leukemia cells/mouse) and treated, intravenously, from the first to the fifth day after inoculation with the compounds under examination.

[8] = system: oncogenic viruses; experiment: Cell transformation induced by oncogenic viruses (summary); assay type: cell-based
Method: as §4

[9] = system: a number of experimental tumors; experiment: Antitumor activity on experimental tumors in mice (summary); assay type: in vivo; settings: mean survival time, non-toxic doses
Method: as §4

[10] = system: ASCITES SARCOMA 180; experiment: Action on ascites sarcoma 180 in mice; assay type: in vivo, mice (Swiss CD 1); settings: for Average Survival Time (%): 1 day after inoculation, untreated = 100%
Method: The tests were carried out on groups of 10 female mice (Swiss CD 1). The compounds under examination were administered intraperitoneally in varying doses to the test animals 1 day after intraperitoneal inoculation with 1 × 10^6 tumor cells per animal. The average survival time is given in Table 1 as a percentage of the survival time of untreated animals, which is arbitrarily designated as 100%. Also given in Table 1 are the number of long term survivors.

[11] = system: Moloney Sarcoma Virus; experiment: Foci formation by Moloney Sarcoma Virus in mouse embryo fibroblast cultures; assay type: cell-based; settings: for activity at 0.0062 µg/mL / activity at 0.025 µg/mL / activity at 0.1 µg/mL / activity at 0.4 µg/mL / IC50: Fibroblast, 72 h, 3 days treatment; for activity at 0.0062 µg/mL: 0.0062 μg/ml; for activity at 0.0062 µg/mL / activity at 0.025 µg/mL / activity at 0.1 µg/mL / activity at 0.4 µg/mL: read-out: Foci Formation (% of controls); for activity at 0.025 µg/mL: 0.025 μg/ml; for activity at 0.1 µg/mL: 0.1 μg/ml; for activity at 0.4 µg/mL: 0.4 μg/ml; for IC50: read-out: Foci Formation ID50 (A); for B/A: ratio ID50 cell proliferation (B) / ID50 foci formation (A), 4320 min
Method: as §1, §2

[12] = 2h, value marked * Metaphasic block

**Q.** What does the source list for `COc1cccc2c1C(=O)c1c(O)c3c(c(O)c1C2=O)C[C@@](O)(C(C)=O)C[C@@H]3O[C@H]1C[C@H](N)[C@@H](O)[C@H](C)O1` [VI, 7-0-(3'-amino-2',3',6'-trideoxy-α-L-arabinohexopyranosyl)-daunomycinone]?
**A.** cardiotoxic activity [1]: lower than that of daunomycin (IV); activity at 0.0062 µg/mL [2]: 75%; activity at 0.025 µg/mL [2]: 23%; activity at 0.1 µg/mL [2]: 14%; activity at 0.4 µg/mL [2]: 1%; CC50 at 72 h [3]: 0.013 µg/mL (≈ 0.0246 µM); activity at 0.025 µg/mL ([4]; 2h): 113%; activity at 0.025 µg/mL ([4]; 8h): 88%; activity at 0.025 µg/mL ([4]; 24h): 48%; activity at 0.05 µg/mL ([4]; 2h): 115%; activity at 0.05 µg/mL ([4]; 8h): 56%; activity at 0.05 µg/mL ([4]; 24h): 23%; activity at 0.1 µg/mL ([4]; 2h): 77%; activity at 0.1 µg/mL ([4]; 8h): 23%; activity at 0.1 µg/mL ([4]; 24h): 3%; IC50 ([4]; 2h exposure): 0.16 µg/mL (≈ 0.303 µM); IC50 ([4]; 8h exposure): 0.056 µg/mL (≈ 0.106 µM); IC50 ([4]; 24h exposure): 0.027 µg/mL (≈ 0.0512 µM); inhibition of cell mitosis and proliferative activity [5]: powerful inhibitors of cell mitosis and proliferative activity in cultured cells in vitro; activity at 0.025 µg/mL [6, 12]: 226%; activity at 0.025 µg/mL ([6]; 4h): 100%; activity at 0.025 µg/mL ([6]; 8h): 117%; activity at 0.05 µg/mL [6, 12]: 189%; activity at 0.05 µg/mL ([6]; 4h): 103%; activity at 0.05 µg/mL ([6]; 8h): 122%; activity at 0.1 µg/mL ([6]; 2h): 79%; activity at 0.1 µg/mL ([6]; 4h): 140%; activity at 0.1 µg/mL ([6]; 8h): 0%; Average Survival Time (%) ([7]; 1.5 mg/kg daily i.v.): 115%; Average Survival Time (%) ([7]; 2.25 mg/kg daily i.v.): 143%; Average Survival Time (%) ([7]; 3 mg/kg daily i.v.): 162%; Average Survival Time (%) ([7]; 3.75 mg/kg daily i.v.): 122%; Average Survival Time (%) ([7]; 4.5 mg/kg daily i.v.): 120%; activity on cell transformation induced by oncogenic viruses [8]: substantial activity on cell transformation induced by oncogenic viruses; antitumor activity in mice [9]: increase in the mean survival time at non-toxic doses; Long Term Survivors after 60 days ([10]; 0.22 mg/kg i.p.): 1/10; Average Survival Time (%) ([10]; 0.22 mg/kg i.p.): 111.1%; Long Term Survivors after 60 days ([10]; 1.1 mg/kg i.p.): 1/10; Average Survival Time (%) ([10]; 1.1 mg/kg i.p.): 120.8%; Long Term Survivors after 60 days ([10]; 5.7 mg/kg i.p.): 0/10; Average Survival Time (%) ([10]; 5.7 mg/kg i.p.): 174.5%; activity at 0.0062 µg/mL [11]: 51%; activity at 0.025 µg/mL [11]: 0%; activity at 0.1 µg/mL [11]: 0%; activity at 0.4 µg/mL [11]: 0%; IC50 [11]: 0.006 µg/mL (≈ 0.0114 µM); B/A [11]: 2.1

**Q.** What does the source list for `COc1cccc2c1C(=O)c1c(O)c3c(c(O)c1C2=O)C[C@@](O)(C(C)=O)C[C@@H]3O[C@@H]1C[C@H](N)[C@@H](O)[C@H](C)O1` [VII, 7-O-(3'-amino-2',3',6'-trideoxy-β-L-arabinohexopyranosyl)-daunomycinone]?
**A.** activity at 0.0062 µg/mL [2]: 87%; activity at 0.025 µg/mL [2]: 80%; activity at 0.1 µg/mL [2]: 28%; activity at 0.4 µg/mL [2]: 14%; CC50 at 72 h [3]: 0.064 µg/mL (≈ 0.121 µM); activity at 0.25 µg/mL ([4]; 2h): 108%; activity at 0.25 µg/mL ([4]; 8h): 86%; activity at 0.25 µg/mL ([4]; 24h): 70%; activity at 0.5 µg/mL ([4]; 2h): 101%; activity at 0.5 µg/mL ([4]; 8h): 37%; activity at 0.5 µg/mL ([4]; 24h): 18%; activity at 1 µg/mL ([4]; 2h): 98%; activity at 1 µg/mL ([4]; 8h): 17%; activity at 1 µg/mL ([4]; 24h): 6%; IC50 ([4]; 2h exposure): > 1 µg/mL; IC50 ([4]; 8h exposure): 0.47 µg/mL (≈ 0.891 µM); IC50 ([4]; 24h exposure): 0.33 µg/mL (≈ 0.626 µM); inhibition of cell mitosis and proliferative activity [5]: powerful inhibitors of cell mitosis and proliferative activity in cultured cells in vitro; activity at 0.25 µg/mL ([6]; 2h): 137%; activity at 0.25 µg/mL ([6]; 4h): 103%; activity at 0.25 µg/mL ([6]; 8h): 85%; activity at 0.5 µg/mL ([6]; 2h): 95%; activity at 0.5 µg/mL ([6]; 4h): 67%; activity at 0.5 µg/mL ([6]; 8h): 88%; activity at 1 µg/mL ([6]; 2h): 52%; activity at 1 µg/mL ([6]; 4h): 40%; activity at 1 µg/mL ([6]; 8h): 0%; Average Survival Time (%) ([7]; 1.5 mg/kg daily i.v.): 106%; Average Survival Time (%) ([7]; 2.25 mg/kg daily i.v.): 102%; Average Survival Time (%) ([7]; 3 mg/kg daily i.v.): 121%; activity on cell transformation induced by oncogenic viruses [8]: substantial activity on cell transformation induced by oncogenic viruses; antitumor activity in mice [9]: increase in the mean survival time at non-toxic doses; Long Term Survivors after 60 days ([10]; 0.26 mg/kg i.p.): 0/10; Average Survival Time (%) ([10]; 0.26 mg/kg i.p.): 96.6%; Long Term Survivors after 60 days ([10]; 1.3 mg/kg i.p.): 1/10; Average Survival Time (%) ([10]; 1.3 mg/kg i.p.): 114.8%; Long Term Survivors after 60 days ([10]; 6.7 mg/kg i.p.): 1/10; Average Survival Time (%) ([10]; 6.7 mg/kg i.p.): 118.6%; activity at 0.0062 µg/mL [11]: 48%; activity at 0.025 µg/mL [11]: 44%; activity at 0.1 µg/mL [11]: 5%; activity at 0.4 µg/mL [11]: 0%; IC50 [11]: 0.01 µg/mL (≈ 0.019 µM); B/A [11]: 6.4

**Q.** With `COc1cccc2c1C(=O)c1c(O)c3c(c(O)c1C2=O)C[C@@](O)(C(C)=O)C[C@@H]3O[C@H]1C[C@H](N)[C@H](O)[C@H](C)O1` [IV, 7-O-(3'-amino-2',3',6'-trideoxy-α-L-lyxohexopyranosyl)-daunomycin-one, reference compound] as the compound, how does the CC50 at 72 h [3] read?
**A.** 0.0086 µg/mL (≈ 0.0163 µM)

**Q.** What about the IC50 ([4]; 2h exposure) of the same compound?
**A.** 0.098 µg/mL (≈ 0.186 µM)

**Q.** And the IC50 ([4]; 8h exposure)?
**A.** 0.036 µg/mL (≈ 0.0682 µM)

**Q.** What about the IC50 ([4]; 24h exposure) of the same compound?
**A.** 0.021 µg/mL (≈ 0.0398 µM)

**Q.** What about the IC50 [11] of the same compound?
**A.** 0.006 µg/mL (≈ 0.0114 µM)

**Q.** And the B/A [11]?
**A.** 1.4
